From patent US10077261B2, “Imidazolin-5-one derivative useful as FASN inhibitors for the treatment of cancer” (Janssen Pharmaceutica NV, priority 2012, dated 2018)

Tests used:
A2780 ovarian cells [1] = experiment: A2780 ovarian cell proliferation assay in lipid reduced medium, without palmitate (MTT); format: cell-based; details: Homo sapiens, A2780, 96 h; read-out: pIC50 A2780 Ovarian Cell, Without Palmitate (converted)
A2780 ovarian cells [2] = experiment: A2780 ovarian cell proliferation assay in lipid reduced medium, with palmitate (MTT); format: cell-based; details: Homo sapiens, A2780, 96 h; read-out: pIC50 A2780 Ovarian Cell, With Palmitate (converted)
Procedure, shortened: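 In this palmitate-supplemented format, compound dilutions (30 μM down to 0.01 μM) are added to cells in lipid-reduced serum with 25 μM palmitate, 0.2% fatty-acid-free BSA and 0.25% ethanol. After four days (96 h) MTT absorbance at 544 nm is recorded and fitted by minimum sum of squares.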

[3] = molecular target: Fatty Acid Synthase Keto-reductase Domain (FASN KR) (Homo sapiens, UniProt P49327); experiment: Fatty Acid Synthase keto-reductase domain (FASN KR) inhibition, NADPH oxidation at 340 nm
Method: After 20 minutes incubation at room temperature the plate was measured again (T2).
The decrease in absorbance was calculated as (Absorbance before incubation T1)−(Absorbance following incubation T2).
A plot of Controlmin versus test compound concentration was fitted to a 4-parameter logistic curve using a non-linear least squares regression method.

[4] = tested on: LNCaP-Vancouver prostate cells; experiment: In vitro LNCaP Vancouver prostate cell proliferation assay in lipid reduced medium; format: cell-based; details: read-out: pIC50 LNCaP_Vancouver prostate cell (converted)
[5] = tested on: PC-3M-Luc-C6 prostate cells; experiment: In vitro PC-3M-Luc-C6 prostate cell proliferation assay in lipid reduced medium; format: cell-based; details: 96 h, read-out: pIC50 PC-3M-Luc-C6 prostate cell (converted)
[6] = molecular target: T1, hFASN enzyme (full length) (Homo sapiens, UniProt P49327); experiment: Fatty Acid Synthase (FASN) inhibition scintillation proximity assay; format: biochemical; details: for inhibition at 10 µM: read-out: Human FASN % inhibition @ 10 μM, 10 μM test compound; for IC50: read-out: Human FASN pIC50 (converted)
T1 construct: 10 μL hFASN enzyme (full length, 300 ng, purified in house); made in house
Procedure, shortened: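 Scintillation proximity format: in-house full-length enzyme, 300 ng per well, pH 7.5 phosphate/DTT buffer, ³H-acetyl-CoA and malonyl-CoA. Emission counted on LEADseeker at 610 nm at least 24 h after stopping.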

T1 sequence (P49327 whole entry): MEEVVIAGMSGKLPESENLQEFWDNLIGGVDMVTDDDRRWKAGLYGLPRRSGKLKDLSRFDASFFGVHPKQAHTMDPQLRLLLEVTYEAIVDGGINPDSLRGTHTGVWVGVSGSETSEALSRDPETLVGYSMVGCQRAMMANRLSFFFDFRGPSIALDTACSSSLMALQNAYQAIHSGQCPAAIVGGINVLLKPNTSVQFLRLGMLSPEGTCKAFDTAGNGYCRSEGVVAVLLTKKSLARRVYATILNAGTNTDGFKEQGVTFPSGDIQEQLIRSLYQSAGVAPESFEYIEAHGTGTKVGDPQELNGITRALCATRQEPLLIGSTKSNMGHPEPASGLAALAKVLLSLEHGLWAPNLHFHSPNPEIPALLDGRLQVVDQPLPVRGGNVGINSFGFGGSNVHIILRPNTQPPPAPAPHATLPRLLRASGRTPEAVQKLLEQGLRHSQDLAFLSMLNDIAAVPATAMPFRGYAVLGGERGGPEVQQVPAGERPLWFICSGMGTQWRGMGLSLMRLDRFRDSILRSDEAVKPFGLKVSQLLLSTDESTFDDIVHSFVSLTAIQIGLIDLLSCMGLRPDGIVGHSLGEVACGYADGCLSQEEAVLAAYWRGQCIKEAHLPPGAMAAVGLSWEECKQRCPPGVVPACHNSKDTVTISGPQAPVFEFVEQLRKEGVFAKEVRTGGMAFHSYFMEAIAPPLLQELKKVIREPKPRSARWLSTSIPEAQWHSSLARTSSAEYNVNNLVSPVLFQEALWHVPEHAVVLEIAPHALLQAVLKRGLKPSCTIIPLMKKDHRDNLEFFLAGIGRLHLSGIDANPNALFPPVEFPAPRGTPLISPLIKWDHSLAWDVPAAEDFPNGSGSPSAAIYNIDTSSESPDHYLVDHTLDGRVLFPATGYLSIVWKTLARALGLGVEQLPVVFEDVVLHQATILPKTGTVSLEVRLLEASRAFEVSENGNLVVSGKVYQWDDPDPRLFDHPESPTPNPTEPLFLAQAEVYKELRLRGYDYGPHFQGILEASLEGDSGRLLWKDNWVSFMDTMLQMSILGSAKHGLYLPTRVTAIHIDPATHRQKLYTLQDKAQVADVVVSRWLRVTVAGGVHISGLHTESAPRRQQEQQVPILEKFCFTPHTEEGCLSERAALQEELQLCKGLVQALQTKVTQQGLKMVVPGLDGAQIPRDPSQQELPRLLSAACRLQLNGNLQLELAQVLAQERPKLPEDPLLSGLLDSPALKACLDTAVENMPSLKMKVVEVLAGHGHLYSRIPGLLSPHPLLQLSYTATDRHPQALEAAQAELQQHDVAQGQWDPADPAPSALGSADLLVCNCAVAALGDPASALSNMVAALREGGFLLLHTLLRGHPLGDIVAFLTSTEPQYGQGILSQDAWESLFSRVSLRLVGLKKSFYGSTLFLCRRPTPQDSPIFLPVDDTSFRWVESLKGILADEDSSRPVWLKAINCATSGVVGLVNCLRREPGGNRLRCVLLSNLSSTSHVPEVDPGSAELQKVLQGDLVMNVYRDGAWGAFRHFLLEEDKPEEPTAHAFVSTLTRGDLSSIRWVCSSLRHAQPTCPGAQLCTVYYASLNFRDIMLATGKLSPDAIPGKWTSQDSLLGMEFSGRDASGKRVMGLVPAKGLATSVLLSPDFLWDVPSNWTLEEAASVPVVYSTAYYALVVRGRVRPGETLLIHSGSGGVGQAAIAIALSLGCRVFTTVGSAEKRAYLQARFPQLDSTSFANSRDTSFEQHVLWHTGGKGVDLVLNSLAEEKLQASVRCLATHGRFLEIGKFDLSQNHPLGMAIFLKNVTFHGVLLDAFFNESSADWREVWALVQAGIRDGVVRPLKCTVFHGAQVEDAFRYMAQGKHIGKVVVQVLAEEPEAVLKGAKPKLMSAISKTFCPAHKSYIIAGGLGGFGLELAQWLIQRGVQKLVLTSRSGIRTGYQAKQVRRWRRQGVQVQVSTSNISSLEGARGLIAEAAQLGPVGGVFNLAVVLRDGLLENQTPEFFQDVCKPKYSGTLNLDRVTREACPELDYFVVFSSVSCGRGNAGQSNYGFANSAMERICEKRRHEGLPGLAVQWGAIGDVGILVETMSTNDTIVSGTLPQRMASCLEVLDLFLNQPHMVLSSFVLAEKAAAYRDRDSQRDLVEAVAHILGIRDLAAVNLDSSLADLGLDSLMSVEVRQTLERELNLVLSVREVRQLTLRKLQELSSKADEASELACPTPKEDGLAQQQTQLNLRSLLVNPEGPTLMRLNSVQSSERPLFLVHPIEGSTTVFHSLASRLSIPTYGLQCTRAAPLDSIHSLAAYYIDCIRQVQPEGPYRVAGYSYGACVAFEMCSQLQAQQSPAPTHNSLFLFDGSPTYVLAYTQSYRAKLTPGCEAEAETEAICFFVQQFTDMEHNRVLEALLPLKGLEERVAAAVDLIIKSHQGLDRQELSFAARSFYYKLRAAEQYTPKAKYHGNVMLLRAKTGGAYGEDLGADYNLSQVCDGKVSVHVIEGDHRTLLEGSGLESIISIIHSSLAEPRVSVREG
Fatty Acid Synthase Keto-reductase Domain (FASN KR), sequence (P49327 whole entry, the tested form may be a part): as the sequence (P49327 whole entry) above

Row | SMILES | IC50 (A2780 ovarian cells [1]) [nM] | IC50 (A2780 ovarian cells [2]) [nM] | IC50 [3] [nM] | IC50 [4] [nM] | IC50 [5] [nM] | inhibition at 10 µM [6] [%] | IC50 [6] [nM]
1 | O=C(C1CC1)N1CC(CN2C(=O)C3(CC3)N=C2c2ccc(-c3nc4ccc(Cl)cc4o3)cc2F)C1 [compound 649, 5-[4-(6-Chloro-1,3-benzoxazol-2-yl)-2-fluorophenyl]-6-{[1-(cyclopropylcarbonyl)azetidin-3-yl]methyl}-4,6-diazaspiro[2.4]hept-4-en-7-one] | 200 | 7410 | 372 | 1740 | 437 | 97 | 158
2 | O=C(C1CCO1)N1CC(CN2C(=O)C3(CC3)N=C2c2ccc(-c3ccc4cc(F)ccc4c3)cc2F)C1 (stereo not drawn) [compound 369, 5-(2-fluoro-4-(6-fluoronaphthalen-2-yl)phenyl)-6-((1-(oxetan-2-carbonyl)azetidin-3-yl)methyl)-4,6-diazaspiro[2.4]hept-4-en-7-one] | 4.27 | 2090 | 37.2 | 45.7 | 10 | 102 | 26.3
3 | N#Cc1ccc2ccc(-c3ccc(C4=NC5(CC5)C(=O)N4CC4CN(C(=O)C5CC5)C4)c(F)c3)cc2c1 [compound 616, 7-[4-(6-{[1-(Cyclopropylcarbonyl)azetidin-3-yl]methyl}-7-oxo-4,6-diazaspiro[2.4]hept-4-en-5-yl)-3-fluorophenyl]naphthalene-2-carbonitrile] | 1820 | > 10000 | 1550 | 3160 | > 10000 | 94 | 513
4 | Cc1ccc(-c2ccc(-c3ccc(C4=NC5(CC5)C(=O)N4C[C@H]4CCN(C(=O)C5CC5)C4)cc3)cc2)cc1 [compound 413, 6-{[(3S)-1-(Cyclopropylcarbonyl)pyrrolidin-3-yl]methyl}-5-(4″-methyl-1,1′:4′,1″-terphenyl-4-yl)-4,6-diazaspiro[2.4]hept-4-en-7-one] | ~676 | 7240 | 891 | 447 | 479 | 91 | 302
5 | Cn1nc(C(N)=O)c2ccc(-c3ccc(C4=NC5(CC5)C(=O)N4C[C@@H]4CCN(C(=O)C5CC5)C4)cc3)cc21 [compound 221, (R)-6-(4-(6-((1-(cyclopropanecarbonyl)pyrrolidin-3-yl)methyl)-7-oxo-4,6-diazaspiro[2.4]hept-4-en-5-yl)phenyl)-1-methyl-1H-indazole-3-carboxamide] | 46.8 | 6920 | 234 | ~380 | 132 | 92 | 97.7
6 | CC(O)C(=O)N1CC[C@@H](CN2C(=O)C3(CCOC3)N=C2c2ccc(-c3ccc4cccnc4c3)cc2)C1 (stereo partly drawn) [compound 681, 3-{[(3R)-1-(2-Hydroxypropanoyl)pyrrolidin-3-yl]methyl}-2-(4-quinolin-7-ylphenyl)-7-oxa-1,3-diazaspiro[4.4]non-1-en-4-one] | 794 | > 10000 | 1380 | 4900 | 1380 | 91 | 295
7 | Cn1nccc1-c1ccc(-c2ccc(C3=NC4(CC4)C(=O)N3CC3CN(C(=O)C4(C)CC4)C3)c(F)c2)cc1 [compound 566, 5-[3-Fluoro-4′-(1-methyl-1H-pyrazol-5-yl)biphenyl-4-yl]-6-({1-[(1-methylcyclopropyl)carbonyl]azetidin-3-yl}methyl)-4,6-diazaspiro[2.4]hept-4-en-7-one] | 295 | > 10000 | 776 | 1550 | 575 | 93 | 380
8 | O=C(C1CC1)N1CC(CN2C(=O)C3(CC3)N=C2c2ccc(-c3cccc(SC4CC4)c3)cc2F)C1 [compound 645, 6-{[1-(Cyclopropylcarbonyl)azetidin-3-yl]methyl}-5-[3′-(cyclopropylsulfanyl)-3-fluorobiphenyl-4-yl]-4,6-diazaspiro[2.4]hept-4-en-7-one] | ~2040 | > 10000 | 676 | 3470 | 1740 | 100 | 275
9 | Cc1cc2cc(-c3ccc(C4=NC5(CC5)C(=O)N4C[C@@H]4CCN(C(=O)C5CC5)C4)cc3)ccc2[nH]1 [compound 214, (R)-6-((1-(cyclopropanecarbonyl)pyrrolidin-3-yl)methyl)-5-(4-(2-methyl-1H-indol-5-yl)phenyl)-4,6-diazaspiro[2.4]hept-4-en-7-one] | ~64.6 | > 10000 | 81.3 | 363 | 66.1 | 99 | 22.4
10 | Cc1nc2cc(-c3ccc(C4=NC5(CC5)C(=O)N4CC4CN(C(=O)C5CC5)C4)cc3)ccc2s1 [compound 562, 6-{[1-(Cyclopropylcarbonyl)azetidin-3-yl]methyl}-5-[4-(2-methyl-1,3-benzothiazol-5-yl)phenyl]-4,6-diazaspiro[2.4]hept-4-en-7-one] | 955 | > 10000 | 1380 | 3090 | 1620 | 97 | 245
11 | Cc1cc(-c2ccc3c(cnn3C)c2)ccc1C1=NC2(CC2)C(=O)N1CC1CN(C(=O)C2CC2)C1 [compound 292, 6-((1-(cyclopropanecarbonyl)azetidin-3-yl)methyl)-5-(2-methyl-4-(1-methyl-1H-indazol-5-yl)phenyl)-4,6-diazaspiro[2.4]hept-4-en-7-one] | 126 | > 10000 | 245 | 692 | 178 | 100 | 87.1
12 | O=C(C1CC1)N1CC[C@@H](CN2C(=O)C3(CC3)N=C2c2ccc(-c3cccc4[nH]ncc34)c(F)c2)C1 [compound 237, (R)-6-((1-(cyclopropanecarbonyl)pyrrolidin-3-yl)methyl)-5-(3-fluoro-4-(1H-indazol-4-yl)phenyl)-4,6-diazaspiro[2.4]hept-4-en-7-one] | 35.5 | > 10000 | 120 | 631 | ~74.1 | 100 | 79.4
13 | N#Cc1ccc2cc(-c3ccc(C4=NC5(CC5)C(=O)N4CC4CN(C(=O)C5CC5)C4)c(F)c3)ccc2c1 [compound 222, 6-(4-(6-((1-(cyclopropanecarbonyl)azetidin-3-yl)methyl)-7-oxo-4,6-diazaspiro[2.4]hept-4-en-5-yl)-3-fluorophenyl)-2-naphthanitrile] | 6.17 | ~2450 | ~51.3 | 46.8 | 9.33 | 103 | 27.5
14 | CC(C)n1cc(-c2ccc(-c3ccc(C4=NC5(CC5)C(=O)N4CC4CN(C(=O)C5CC5)C4)cc3)cc2)cn1 [compound 331] | 69.2 | 5620 | 245 | 617 | 148 | 100 | 66.1
15 | Cc1cc(-c2ccc(-c3cnn(C(C)C)c3)cc2)ccc1C1=NC2(CC2)C(=O)N1CC1CN(C(=O)C2CC2)C1 [compound 325, 6-((1-(cyclopropanecarbonyl)azetidin-3-yl)methyl)-5-(4′-(1-isopropyl-1H-pyrazol-4-yl)-3-methyl-[1,1′-biphenyl]-4-yl)-4,6-diazaspiro[2.4]hept-4-en-7-one] | ~49 | > 10000 | 490 | 363 | 83.2 | 100 | 79.4
16 | O=C(C1CC1)N1CC[C@@H](CN2C(=O)C3(CC3)N=C2c2ccc(-c3ccc4cc[nH]c4c3)cc2F)C1 [compound 247, (R)-6-((1-(cyclopropanecarbonyl)pyrrolidin-3-yl)methyl)-5-(2-fluoro-4-(1H-indol-6-yl)phenyl)-4,6-diazaspiro[2.4]hept-4-en-7-one] | 5.01 | > 10000 | 17.8 | 23.4 | 7.24 | 103 | 16.2
17 | N#CCc1c[nH]c2ccc(-c3ccc(C4=NC5(CC5)C(=O)N4C[C@@H]4CCN(C(=O)C5CC5)C4)cc3)cc12 [compound 212, (R)-2-(5-(4-(6-((1-(cyclopropanecarbonyl)pyrrolidin-3-yl)methyl)-7-oxo-4,6-diazaspiro[2.4]hept-4-en-5-yl)phenyl)-1H-indole-3-yl)acetonitrile] | 7.24 | > 10000 | 37.2 | 110 | 18.2 | 101 | 28.2
18 | Cn1ccc(-c2ccc(-c3ccc(C4=NC5(CC5)C(=O)N4CC4CN(C(=O)C5CC5)C4)cc3)cc2)n1 [compound 542, 6-{[1-(Cyclopropylcarbonyl)azetidin-3-yl]methyl}-5-[4′-(1-methyl-1H-pyrazol-3-yl)biphenyl-4-yl]-4,6-diazaspiro[2.4]hept-4-en-7-one] | 832 | > 10000 | 1620 | 3020 | 4470 | 89 | 692
